From patent US20200222347A1, “ANTIMICROBIALS AND METHODS OF USE THEREOF” (priority 2013, published 2020)
“Also recorded” adds a separate entry of the source.

How the values were obtained:
[1] = test system: Pseudomonas aeruginosa ATCC9027; test: Paper disc test with water or propylene glycol, Example 10
[2] = Amount of PCA that can be dissolved; assay type: physicochemical
Protocol: For instance the dose used on an open rodent taped stripped skin would be conditioned by the wound's tolerance of the vehicle which in this case would be water, normal saline or like. The amount of PCA for instance that can be dissolved in water is 1.24 grams per 100 ml. In the rodent the effective dose of C-3-G and PCA were expressed in […] (mM) as 25 to 200 mM dose. Conversion factors are necessary to make comparisons to larger doses used in other applications. 78 mM (mmole/L) PCA would be 12.021 g PCA per Liter. Therefore 25 mM/L would be 3.852 grams per liter or […]. The fluid applied was […] or 0.1 milliliter. Therefore, for example, the dose of PCA that was bactericidal on Pseudomonas aeruginosa on taped stripped rodent skin was 0.00038 grams. When treating intact normal human skin as in the Loma Linda Medical School testing, it was shown the 1.24 gram in 100 ml of water would only decrease the number of colonies of Propionibacterium acnes. Note that there was no skin penetration properties to water by this method. The increase of PCA concentration was possible to as much as 17% when in composition of matter was 70% isopropyl alcohol with propylene glycol and essences of peppermint oil. This composition had skin penetration properties. However the amount of liquid applied was no more than one milliliter by cotton swab. Therefore the topical dose on intact human skin was […] (estimated). This is many times that required for traumatized taped stripped skin.
For compositions applied to the skin or a bandage the PCA crystals need to be dissolved in a liquid. […] The use of isopropyl alcohol in the combination was not an obvious choice because isopropyl alcohol alone only is marginally effective in killing bacteria. So even after using isopropyl alcohol to dissolve the PCA, the inventor discovered that even at 10% PCA in isopropyl alcohol, the composition was only marginally effective. […]

[3] = test system: Propionibacterium acnes (1100; ATCC 6919); test: BALB/c mice intradermal infection, topical treatment, Example 9; assay type: in vivo; conditions: for effect on P. acnes CFU burden in mouse skin: 96 hours
Protocol: BALB/c mice were infected with Propionibacterium acnes via intradermal injection and treated topically with varying concentrations of a novel test compound, PCA, at 2, 24, 48 and 72 hours following challenge. Efficacy was evaluated by CFU analysis from skin samples harvested at 96 hours post challenge.
Female BALB/c mice, ordered from Harlan and weighing 17-19 g, were acclimated to housing conditions and handled in accordance with AUP number TP-18-13. The animals were acclimated for 4 days prior to bacterial challenge. Only animals deemed healthy and fully immunocompetent were included in this study. Cages were prepared with 2 mice per cage.
On Day −1, each mouse was anesthetized in an Isoflurane induction chamber and the lesion site was cleared of hair. An area of approximately 2.0 cm×2.0 cm of skin on the dorsal area of each mouse was cleared through use of the depilatory agent Nair®.
Cultures were grown for 96 hrs at 37° C. in an anaerobic atmosphere on TS agar plates supplemented with 5% sheep blood cells. The culture was aseptically swabbed and transferred to tubes of TS broth and allowed to grow for 72 hours. The cultures were diluted to provide challenge inoculum of approximately 6.0-7.0 log 10 CFU per 50 μL in PBS. On Day 0 each mouse was anesthetized using Isoflurane. Each animal on the study was administered 50 μL of the bacterial suspension via intradermal injection in the dorsal area that was previously denuded of hair. The final CFU count from the challenge suspension determined that 6.0 log 10 CFU per mouse were delivered.
The test treatment, PCA, was provided by the study Sponsor and formulated using sterile water. Treatments were administered topically in a dose volume of 0.1 mL. Treatments were given at 2, 24, 48 and 72 hours post challenge at 60 mg/kg (78 mM; Group 3), 30 mg/kg (39 mM; Group 4) or 15 mg/kg (19.5 mM; Group 5).
At 96 hours following challenge, mice were humanely euthanized and skin was aseptically removed from the infection site. Skin samples were placed in homogenation vials with 2.0 mL PBS, weighed and homogenized using a mini-bead beater. Homogenate was serially diluted and plated anaerobically on TSA agar plates for enumeration of colony forming units per gram of skin tissue.

S. aureus 6538 = test: Kirby-Bauer disc diffusion antimicrobial susceptibility; assay type: cell-based; conditions: 100 mM, carrier water; 18-24 hours for aerobes
P. aeruginosa = test: as above; assay type: cell-based, Pseudomonas aeruginosa; conditions: 100 mM, carrier water; 18-24 hours for aerobes
[4] = test system: Staphylococcus aureus ATCC 33591 (MRSA) biofilm; test: Single spray on biofilm on glass slides, time study, Example 8; conditions: for CFUs after spray: 30% PCA spray
[5] = test system: normal human skin bacterial resident flora; test: Human skin disinfection study, Loma Linda, Phase 1; assay type: in vivo
Protocol: A randomized double blinded study was performed at Loma Linda Medical School. It involved 4 phases over two years' time. The methods were as follows:
[…] […] The controls were Chloroprep (2% Chlorhexidine in 70% isopropyl alcohol) and Betadine (9.0% to 12.0% available iodine in water). Cultures were taken before application and 20 minutes after application. The initial harvest was by a surface swab. Application was by soaked sponge, without force or scrubbing. The second harvest was performed with the back edge of a sterile knife blade scraping with pressure in attempt to maximize the harvest from the deeper sebaceous glands and hair follicles. The specimens were placed in culture media. Bacteriology was performed at WuXiAppTec in Marrietta, Ga.

[6] = test system: E. coli, ATTC 8739 and ATCC 43895; test: Kirby-Bauer disc diffusion antimicrobial susceptibility; assay type: cell-based; conditions: 100 mM, carrier water; 18-24 hours for aerobes
[7] = 1% PCA in water, 20 minutes after application

O=C(O)c1ccc(O)c(O)c1 [PCA, Protocatechuic acid]
inhibition of growth under the sample ([1]; PPG): I
zone of inhibition ([1]; PPG): 4 mm
inhibition of growth under the sample ([1]; Water): I
zone of inhibition ([1]; Water): 10 mm
concentration possible in solution ([2]; 70% isopropyl alcohol with propylene glycol and essences of peppermint oil): ≤ 17%
amount that can be dissolved in water ([2]; Water): 1.24 grams per 100 ml
concentration achieved when dissolving in water ([2]; Water): ≤ 1.24%
effect on P. acnes CFU burden in mouse skin ([3]; 15 mg/kg (19.5 mM) topical): no such effect; also recorded: statistically non-different
effect on P. acnes CFU burden in mouse skin ([3]; 30 mg/kg (39 mM) topical): no such effect; also recorded: statistically non-different
reduction of CFU burden in skin vs untreated ([3]; 60 mg/kg (78 mM) topical at 2, 24, 48 and 72 hours, harvest 96 hours): approximately 1 log 10
effect on P. acnes CFU burden in mouse skin ([3]; 60 mg/kg (78 mM) topical, P=0.0285 vs untreated): bacteriostatic effect; also recorded: significant reduction
effectiveness against S. aureus 6538 (S. aureus 6538): effective
effectiveness against P. aeruginosa (P. aeruginosa): effective; also recorded: some effectiveness
CFUs after spray ([4]; after 30 minutes, from 60 million CFUs): 3 million
CFUs after spray ([4]; after 60 minutes, from 25 million): 2 million CFUs
biofilms killed ([4]; […], 30 minutes): 90%
anaerobic cultures with no growth [5, 7]: 6 of 22
subjects with no growth on aerobic culture [5, 7]: 7 of 22
anaerobic cultures with reduced colony growth ([5]; 1% PCA in water, of 22 cultures): 15
aerobic cultures with reduced growth ([5]; 1% PCA in water, of 22 subjects): 10 cultures
effectiveness as skin disinfectant, Phase 1 ([5]; 20 minutes after application): partially effective
effectiveness against E. coli [6]: effective
